# Results taken from patent US20140107219A1, “LOCAL ANAESTHETIC” (VITA (EUROPE) LIMITED, priority 2011, published 2014).
# Where “and” joins values, the source holds several entries; their conditions need not be identical. Equal entries are not always repeated. Where two headings read alike, the source gives them in different places.
# What was measured:
# [1] = biological target: T1, hNav1.6 sodium channels (SCN8A gene, expressed in CHO cells) (Homo sapiens, UniProt Q9UQD0); assay: Automated patch clamp (PatchXpress 7000A), cloned hNav1.6 in CHO cells, tonic and phasic; type: cell-based; conditions: for inhibition at 2000 µM: CHO; for IC50: FIG. 42
# T1 construct: expressed in transfected cells; host or cells: CHO cells
# T1 sequence (Q9UQD0 whole entry): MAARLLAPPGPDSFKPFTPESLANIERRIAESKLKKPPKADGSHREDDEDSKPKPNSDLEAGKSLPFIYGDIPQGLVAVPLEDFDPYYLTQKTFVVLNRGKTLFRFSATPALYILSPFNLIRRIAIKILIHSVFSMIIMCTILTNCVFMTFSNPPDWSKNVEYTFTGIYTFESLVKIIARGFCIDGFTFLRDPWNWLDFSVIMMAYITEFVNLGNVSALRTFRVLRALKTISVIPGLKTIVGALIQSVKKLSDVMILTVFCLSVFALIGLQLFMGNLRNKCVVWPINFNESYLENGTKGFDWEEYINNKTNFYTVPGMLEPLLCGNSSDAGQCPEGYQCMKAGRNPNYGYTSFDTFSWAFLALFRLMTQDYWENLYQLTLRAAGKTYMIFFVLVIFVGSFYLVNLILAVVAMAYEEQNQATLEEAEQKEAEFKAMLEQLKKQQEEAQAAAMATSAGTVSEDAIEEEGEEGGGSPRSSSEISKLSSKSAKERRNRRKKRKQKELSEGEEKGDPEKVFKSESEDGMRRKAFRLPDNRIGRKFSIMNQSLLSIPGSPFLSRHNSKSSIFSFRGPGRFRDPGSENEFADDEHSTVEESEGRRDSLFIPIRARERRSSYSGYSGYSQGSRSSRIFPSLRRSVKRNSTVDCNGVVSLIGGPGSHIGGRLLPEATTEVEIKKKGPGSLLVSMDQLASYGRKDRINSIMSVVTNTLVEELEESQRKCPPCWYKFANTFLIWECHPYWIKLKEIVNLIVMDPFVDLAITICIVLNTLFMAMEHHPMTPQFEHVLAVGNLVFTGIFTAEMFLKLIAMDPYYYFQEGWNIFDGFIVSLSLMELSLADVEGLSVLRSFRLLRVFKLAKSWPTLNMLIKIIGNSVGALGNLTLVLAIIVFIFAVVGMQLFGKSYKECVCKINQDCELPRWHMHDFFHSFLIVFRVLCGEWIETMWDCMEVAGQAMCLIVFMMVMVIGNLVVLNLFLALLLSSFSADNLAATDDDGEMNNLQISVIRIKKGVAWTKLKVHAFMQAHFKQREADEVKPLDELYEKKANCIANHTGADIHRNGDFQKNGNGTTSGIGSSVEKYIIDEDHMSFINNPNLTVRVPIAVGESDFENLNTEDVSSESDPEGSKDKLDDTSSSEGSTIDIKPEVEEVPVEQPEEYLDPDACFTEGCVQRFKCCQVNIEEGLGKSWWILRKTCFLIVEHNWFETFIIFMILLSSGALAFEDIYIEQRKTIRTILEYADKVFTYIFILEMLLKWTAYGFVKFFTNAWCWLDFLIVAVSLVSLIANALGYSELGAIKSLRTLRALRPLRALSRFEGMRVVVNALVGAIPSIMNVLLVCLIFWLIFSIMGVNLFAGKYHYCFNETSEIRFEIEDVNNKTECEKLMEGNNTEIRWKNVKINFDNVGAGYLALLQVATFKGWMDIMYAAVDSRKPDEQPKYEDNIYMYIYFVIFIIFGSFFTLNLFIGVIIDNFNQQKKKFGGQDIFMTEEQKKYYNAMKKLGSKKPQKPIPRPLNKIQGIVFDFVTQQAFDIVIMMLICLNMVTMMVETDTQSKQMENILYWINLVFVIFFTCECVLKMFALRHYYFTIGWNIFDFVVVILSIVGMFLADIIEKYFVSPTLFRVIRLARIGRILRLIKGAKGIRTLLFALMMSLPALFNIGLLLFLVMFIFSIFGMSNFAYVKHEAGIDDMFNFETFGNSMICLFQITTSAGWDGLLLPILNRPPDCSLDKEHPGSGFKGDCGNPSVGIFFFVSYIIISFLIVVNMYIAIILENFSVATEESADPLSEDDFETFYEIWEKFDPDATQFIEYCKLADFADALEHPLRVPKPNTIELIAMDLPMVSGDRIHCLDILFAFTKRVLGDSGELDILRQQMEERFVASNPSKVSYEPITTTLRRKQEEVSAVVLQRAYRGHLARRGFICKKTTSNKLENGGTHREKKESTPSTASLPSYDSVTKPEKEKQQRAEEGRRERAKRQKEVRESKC
# Description: In this example, the in vitro effects of 2-heptanone on the following ion channels were evaluated at room temperature using the PatchXpress 7000A (Molecular Devices), an automatic parallel patch clamp system:
# (§1) 1. Cloned hNav1.2 sodium channels (SCN2A gene, expressed in CHO cells). 2. Cloned hNav1.6 sodium channels (SCN8A gene, expressed in CHO cells).
# The effects of 2-heptanone were evaluated at 0.73, 1.46, 2.19, and 2.92 mg/ml with each concentration tested in two cells (n=2). The duration of exposure to each concentration of 2-heptanone was 5 minutes. Tables 2 to 5 show the individual results from each concentration followed by individual concentration-response curves. The positive controls (Table 6) confirm the sensitivity of the test systems to inhibition.
# . Br. J. Pharmacol. 164, 719-730). […]
# [2] = tested on: isolated sciatic nerve of the rat; assay: Evoked compound action potential (CAP) of the isolated rat sciatic nerve in a three-chamber bath (ex vivo): inhibition and recovery after washout; conditions: for IT100 / IT0: 1.41 mg/mL
# [3] = tested on: gastrocnemius muscle; assay: In vivo muscle CAP (mCAP, EMG integral) after intramuscular injection, gastrocnemius muscle; set-up: species or system rat; conditions: 10.8 mg/kg intramuscular
# [4] = biological target: T2, hNav1.2 sodium channels (SCN2A gene, expressed in CHO cells) (Homo sapiens, UniProt Q99250); assay: Automated patch clamp (PatchXpress 7000A), cloned hNav1.2 in CHO cells, tonic and phasic; type: cell-based; conditions: for inhibition at 2000 µM: CHO
# T2 construct: expressed in transfected cells; host or cells: CHO cells
# T2 sequence (Q99250 whole entry): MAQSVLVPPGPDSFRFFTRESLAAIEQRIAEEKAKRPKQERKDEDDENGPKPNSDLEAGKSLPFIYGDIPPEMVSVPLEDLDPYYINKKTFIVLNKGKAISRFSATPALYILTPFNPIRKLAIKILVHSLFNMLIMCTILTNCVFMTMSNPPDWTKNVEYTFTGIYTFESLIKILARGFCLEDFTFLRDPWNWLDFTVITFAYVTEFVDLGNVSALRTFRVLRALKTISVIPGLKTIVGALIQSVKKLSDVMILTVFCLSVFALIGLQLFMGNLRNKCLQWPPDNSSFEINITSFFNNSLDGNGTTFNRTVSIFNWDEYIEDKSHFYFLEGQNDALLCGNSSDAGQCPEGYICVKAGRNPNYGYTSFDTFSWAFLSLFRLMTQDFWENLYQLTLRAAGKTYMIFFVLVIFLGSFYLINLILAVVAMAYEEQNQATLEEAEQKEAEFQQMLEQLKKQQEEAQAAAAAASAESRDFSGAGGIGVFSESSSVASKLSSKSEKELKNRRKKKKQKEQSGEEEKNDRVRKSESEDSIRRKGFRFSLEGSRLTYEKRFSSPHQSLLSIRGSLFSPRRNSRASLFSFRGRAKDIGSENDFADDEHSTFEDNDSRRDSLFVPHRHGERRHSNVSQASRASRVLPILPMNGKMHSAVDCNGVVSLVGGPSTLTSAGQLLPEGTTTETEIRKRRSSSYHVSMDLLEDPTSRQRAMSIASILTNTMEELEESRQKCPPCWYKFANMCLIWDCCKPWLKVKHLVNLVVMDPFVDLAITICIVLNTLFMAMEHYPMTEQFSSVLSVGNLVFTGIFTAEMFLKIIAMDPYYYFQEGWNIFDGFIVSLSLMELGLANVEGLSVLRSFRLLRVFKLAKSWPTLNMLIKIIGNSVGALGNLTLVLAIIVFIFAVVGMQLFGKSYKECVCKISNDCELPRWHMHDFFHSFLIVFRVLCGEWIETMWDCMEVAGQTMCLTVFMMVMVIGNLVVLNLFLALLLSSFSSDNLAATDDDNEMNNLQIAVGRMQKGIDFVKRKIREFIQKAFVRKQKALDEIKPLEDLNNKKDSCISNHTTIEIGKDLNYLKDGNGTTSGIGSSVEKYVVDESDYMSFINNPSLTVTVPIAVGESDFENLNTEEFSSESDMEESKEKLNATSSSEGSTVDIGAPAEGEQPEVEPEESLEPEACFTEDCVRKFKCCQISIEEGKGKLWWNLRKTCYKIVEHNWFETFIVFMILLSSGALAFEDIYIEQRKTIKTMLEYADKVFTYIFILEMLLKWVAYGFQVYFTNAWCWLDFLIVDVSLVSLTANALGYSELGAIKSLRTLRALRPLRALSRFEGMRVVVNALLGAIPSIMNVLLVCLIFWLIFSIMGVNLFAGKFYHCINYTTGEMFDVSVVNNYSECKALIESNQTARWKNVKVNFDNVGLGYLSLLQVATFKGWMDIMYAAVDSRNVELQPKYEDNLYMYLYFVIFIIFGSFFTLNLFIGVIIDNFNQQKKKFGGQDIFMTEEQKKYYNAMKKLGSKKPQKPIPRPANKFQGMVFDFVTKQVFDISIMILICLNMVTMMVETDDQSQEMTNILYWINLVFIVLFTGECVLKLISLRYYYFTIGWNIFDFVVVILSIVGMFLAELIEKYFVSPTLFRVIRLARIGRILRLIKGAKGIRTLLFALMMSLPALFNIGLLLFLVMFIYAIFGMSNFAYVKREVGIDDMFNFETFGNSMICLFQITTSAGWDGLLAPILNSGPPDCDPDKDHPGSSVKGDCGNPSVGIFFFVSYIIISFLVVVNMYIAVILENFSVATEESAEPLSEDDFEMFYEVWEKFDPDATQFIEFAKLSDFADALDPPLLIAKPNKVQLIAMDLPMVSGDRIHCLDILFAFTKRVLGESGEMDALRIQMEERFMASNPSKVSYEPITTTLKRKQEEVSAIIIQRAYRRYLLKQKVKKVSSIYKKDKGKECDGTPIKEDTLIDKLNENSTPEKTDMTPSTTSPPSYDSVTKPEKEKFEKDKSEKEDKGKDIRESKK
# Description: as §1
# [5] = 2 mM (0.46 mg/mL), single cells
structure (smiles),measurement,setting,value
"CCN(CC)CC(=O)Nc1c(C)cccc1C [lidocaine, 2-(diethylamino)-N-(2,6-dimethylphenyl)-acetamide, reference compound]","Individual Data Points (% Inhibition), Nav1.6 (positive control)",[1]; [5],59.3%
same,inhibition at 2000 µM,"[1]; read-out: Individual Data Points (% Inhibition), Nav1.6 (positive control), 2 mM (0.46 mg/mL), single cells",63.8%
same,inhibition at 2000 µM,"[1]; read-out: Mean % Inhibition of Nav1.6 (positive control), 2 mM (0.46 mg/mL)",61.5%
same,"hNav1.6 IC50, phasic","[1]; Example 18, mean ± SEM",70 ± 10 µg/mL
same,"hNav1.6 IC50, tonic","[1]; Example 18, mean ± SEM",290 ± 10 µg/mL
same,IC50,"[1]; read-out: Nav1.6 IC50, phasic",260 µM
same,IC50,"[1]; read-out: Nav1.6 IC50, tonic",1100 µM
same,IT100 / IT0,[2],320 ± 14.96 s
same,IT100 / IT0,[2]; listed as Lidocaine,320.3 ± 14.96 s
same,IT0,"[2]; 10 mM, stirred saline, individual nerves",90 s and 150 s
same,IT50 (time to inhibit CAP amplitude to 50% of control),[2]; 10 mg/mL,12.0 ± 0.95 s
same,"recovery of the CAP after washout, % of control",[2]; after 1.41 mg/mL,95%
same,IC50 (concentration required to inhibit the CAP to 50% of control),"[2]; estimated from time-response curves, GraphPad Prism 5",337 ± 1 µg/mL
same,IT50 of the integral of mCAPs,[3],19.30 ± 1.92 s
same,"recovery of mCAP, % of initial values after 3 h",[3],70.3±8.67% and 70.3%
same,"Individual Data Points (% Inhibition), Nav1.2 (positive control)",[4]; [5],74.9%
same,inhibition at 2000 µM,"[4]; read-out: Individual Data Points (% Inhibition), Nav1.2 (positive control), 2 mM (0.46 mg/mL), single cells",76.1%
same,inhibition at 2000 µM,"[4]; read-out: Mean % Inhibition of Nav1.2 (positive control), 2 mM (0.46 mg/mL)",75.5%
